From ChEMBL document CHEMBL4483862, “Open-source discovery of chemical leads for next-generation chemoprotective antimalarials” (2018)

System: Plasmodium berghei
Assay: Luciferase/luciferin-expressing antifolate-resistant parasites were used to infect a culture of HepG2 cells that were pre-incubated with compounds. Infected hepatocytes emit light due to the luciferase reaction. Assay results are presented as the percent inhibition of light emission compared to control. […]
Format: functional
Conditions: sporozoite; for IC90: read-out: LUCIFERASE INFECTION ASSAY - IC90

SMILES | IC90 [µM] | also measured
Cc1ccc(-c2cs/c(=N\c3cccnc3)n2CCCn2ccnc2)cc1C | > 10 | IC50 (HEPG2TOX_HILL_SLOPE 0.267, HEPG2TOX_R_SQUARED 0.885, PBLUC_HILL_SLOPE 2.25, PBLUC_R_SQUARED 0.462, read-out: LUCIFERASE INFECTION ASSAY - IC50): 5.5 µM
CN1CCN(C(=O)c2ccc(-c3cnc4cnc(/C=C/c5ccccc5)cn34)cc2)CC1 | > 7.79 | IC50 (HEPG2TOX_HILL_SLOPE 0.285, HEPG2TOX_R_SQUARED 0.311, PBLUC_HILL_SLOPE 1.14, PBLUC_R_SQUARED 0.7, read-out: LUCIFERASE INFECTION ASSAY - IC50): 3.11 µM
Cc1ccc(Nc2ccc(S(=O)(=O)NC3=NCCCCC3)cc2[N+](=O)[O-])cc1 | > 10 | IC50 (HEPG2TOX_HILL_SLOPE 0.294, HEPG2TOX_R_SQUARED 0.717, PBLUC_HILL_SLOPE 0.103, PBLUC_R_SQUARED 0.0204, read-out: LUCIFERASE INFECTION ASSAY - IC50): > 10 µM
N=C1C(c2nc(-c3ccccc3)cs2)C(=O)CN1c1ccc2c(c1)OCCO2 (configuration not stated) | > 8.43 | IC50 (HEPG2TOX_HILL_SLOPE 0.297, HEPG2TOX_R_SQUARED 0.47, PBLUC_HILL_SLOPE 1.65, PBLUC_R_SQUARED 0.172, read-out: LUCIFERASE INFECTION ASSAY - IC50): > 8.43 µM
Cc1ccc(O)c(C(=O)NCCC(C)C)c1 | > 10 | IC50 (HEPG2TOX_HILL_SLOPE 0.253, HEPG2TOX_R_SQUARED 0.657, PBLUC_HILL_SLOPE 0.85, PBLUC_R_SQUARED 0.659, read-out: LUCIFERASE INFECTION ASSAY - IC50): 2.35 µM
O=C(Nc1ccc2nc(-c3ccccc3Cl)[nH]c2c1)c1ccc(=O)[nH]n1 | 4.84 | IC50 (HEPG2TOX_HILL_SLOPE 0.281, HEPG2TOX_R_SQUARED 0.366, PBLUC_HILL_SLOPE 7.23, PBLUC_R_SQUARED 0.542, read-out: LUCIFERASE INFECTION ASSAY - IC50): 3.58 µM
Cc1ccc(C)c(S(=O)(=O)Oc2ccccc2C(=O)OCC(=O)c2c(C)[nH]c3ccccc23)c1 | > 10 | IC50 (HEPG2TOX_HILL_SLOPE 0.276, HEPG2TOX_R_SQUARED 0.379, PBLUC_HILL_SLOPE 12.5, PBLUC_R_SQUARED 0.167, read-out: LUCIFERASE INFECTION ASSAY - IC50): > 10 µM
COc1ccc(-c2nnc3ccc(-c4ccc5ncccc5c4)cn23)cc1OC | 0.0668 | IC50 (HEPG2TOX_HILL_SLOPE 0.239, HEPG2TOX_R_SQUARED 0.342, PBLUC_HILL_SLOPE 2.22, PBLUC_R_SQUARED 0.642, read-out: LUCIFERASE INFECTION ASSAY - IC50): 0.0248 µM
NC(=O)c1cc(S(=O)(=O)N2CCCC2)ccc1OCc1nc2ccccc2s1 | > 10 | IC50 (HEPG2TOX_HILL_SLOPE 0.311, HEPG2TOX_R_SQUARED 0.0458, PBLUC_HILL_SLOPE 3.01, PBLUC_R_SQUARED 0.0562, read-out: LUCIFERASE INFECTION ASSAY - IC50): 7.99 µM
FC(F)(F)Oc1cccc(-c2nc3ccnc(NCc4ccccn4)c3[nH]2)c1 | > 10 | IC50 (HEPG2TOX_HILL_SLOPE 0.276, HEPG2TOX_R_SQUARED 0.811, PBLUC_HILL_SLOPE 0.809, PBLUC_R_SQUARED 0.487, read-out: LUCIFERASE INFECTION ASSAY - IC50): 2.04 µM
CCCn1nc(C(=O)Nc2ccccc2N2CCc3ccccc3C2)ccc1=O | > 10 | IC50 (HEPG2TOX_HILL_SLOPE 0.246, HEPG2TOX_R_SQUARED 0.177, PBLUC_HILL_SLOPE 1.82, PBLUC_R_SQUARED 0.418, read-out: LUCIFERASE INFECTION ASSAY - IC50): 4.28 µM
CC(CCc1ccccc1)Nc1ccc(S(N)(=O)=O)cc1[N+](=O)[O-] (configuration not stated) | > 10 | IC50 (HEPG2TOX_HILL_SLOPE 0.279, HEPG2TOX_R_SQUARED 0.54, PBLUC_HILL_SLOPE 1.88, PBLUC_R_SQUARED 0.412, read-out: LUCIFERASE INFECTION ASSAY - IC50): 8.69 µM
O=S(=O)(c1ccccc1)c1nc(Nc2ccc(F)cc2F)sc1Cl | > 10 | IC50 (HEPG2TOX_HILL_SLOPE 0.283, HEPG2TOX_R_SQUARED 0.886, PBLUC_HILL_SLOPE 3.77, PBLUC_R_SQUARED 0.219, read-out: LUCIFERASE INFECTION ASSAY - IC50): 7.29 µM
COc1ccc(CN2C(=O)N(CC(C)C)C3(CCN(CCCc4ccccc4)CC3)C2=O)cc1 | 4.86 | IC50 (HEPG2TOX_HILL_SLOPE 0.288, HEPG2TOX_R_SQUARED 0.281, PBLUC_HILL_SLOPE 3.96, PBLUC_R_SQUARED 0.368, read-out: LUCIFERASE INFECTION ASSAY - IC50): 2.79 µM
Cc1csc2sc(COC(=O)Nc3ccccc3)c(C)c12 | > 10.4 | IC50 (HEPG2TOX_HILL_SLOPE 0.302, HEPG2TOX_R_SQUARED 0.714, PBLUC_HILL_SLOPE 1.42, PBLUC_R_SQUARED 0.482, read-out: LUCIFERASE INFECTION ASSAY - IC50): 8.97 µM
C=C1c2ccccc2N=C(SC(C)C(=O)Nc2ccccc2)N1C (configuration not stated) | 6.88 | IC50 (HEPG2TOX_HILL_SLOPE 0.246, HEPG2TOX_R_SQUARED 0.527, PBLUC_HILL_SLOPE 4.19, PBLUC_R_SQUARED 0.571, read-out: LUCIFERASE INFECTION ASSAY - IC50): 4.07 µM

SMILES | IC90 [µM] | also measured
CCCCCC(=O)Nc1ccc(C2=Nn3c(Cc4cccc5ccccc45)nnc3SC2)cc1 | > 10 | IC50 (HEPG2TOX_HILL_SLOPE 0.272, HEPG2TOX_R_SQUARED 0.219, PBLUC_HILL_SLOPE 1.92, PBLUC_R_SQUARED 0.644, read-out: LUCIFERASE INFECTION ASSAY - IC50): 7.04 µM
Cc1ccc(/C=C2\CCc3c2nc2ccccc2c3C(=O)OCC#N)cc1 | 0.0147 | IC50 (HEPG2TOX_HILL_SLOPE 0.309, HEPG2TOX_R_SQUARED 0.18, PBLUC_HILL_SLOPE 16.5, PBLUC_R_SQUARED 0.242, read-out: LUCIFERASE INFECTION ASSAY - IC50): 0.0129 µM
CNc1ncnc(NNC(=O)Nc2ccccc2)c1[N+](=O)[O-] | > 10.9 | IC50 (HEPG2TOX_HILL_SLOPE 0.255, HEPG2TOX_R_SQUARED 0.589, PBLUC_HILL_SLOPE 1.34, PBLUC_R_SQUARED 0.392, read-out: LUCIFERASE INFECTION ASSAY - IC50): 6.01 µM
O=C(COC(=O)c1c2c(nc3ccccc13)CCCC2)Nc1ccccc1 | > 10 | IC50 (HEPG2TOX_HILL_SLOPE 0.267, HEPG2TOX_R_SQUARED 0.55, read-out: LUCIFERASE INFECTION ASSAY - IC50): > 10 µM
N#C/C(C(=O)c1ccc([N+](=O)[O-])s1)=C1\Nc2ccccc2S1 | > 10 | IC50 (HEPG2TOX_HILL_SLOPE 0.276, HEPG2TOX_R_SQUARED 0.471, PBLUC_HILL_SLOPE 0.885, PBLUC_R_SQUARED 0.549, read-out: LUCIFERASE INFECTION ASSAY - IC50): 0.951 µM
CCOc1cc(/C=C/C(=O)c2cccs2)cc(Br)c1OC | > 10 | IC50 (HEPG2TOX_HILL_SLOPE 0.301, HEPG2TOX_R_SQUARED 0.1, PBLUC_HILL_SLOPE 0.921, PBLUC_R_SQUARED 0.199, read-out: LUCIFERASE INFECTION ASSAY - IC50): > 10 µM
C(=C\c1cn2c(-c3cccnc3)cnc2cn1)/c1ccccc1 | > 11.1 | IC50 (HEPG2TOX_HILL_SLOPE 0.303, HEPG2TOX_R_SQUARED 0.424, PBLUC_HILL_SLOPE 9.4, PBLUC_R_SQUARED 0.254, read-out: LUCIFERASE INFECTION ASSAY - IC50): 8.93 µM
Cc1ccc(-n2c(Sc3ccc([N+](=O)[O-])c4cnccc34)nnc2-c2ccccc2)cc1C | > 10 | IC50 (HEPG2TOX_HILL_SLOPE 0.296, HEPG2TOX_R_SQUARED 0.243, PBLUC_HILL_SLOPE 1.34, PBLUC_R_SQUARED 0.0191, read-out: LUCIFERASE INFECTION ASSAY - IC50): > 10 µM
CS(=O)(=O)Nc1cccc(-c2cnc(N)c(-c3cccc(C(F)(F)F)c3)c2)c1 | 0.0724 | IC50 (HEPG2TOX_HILL_SLOPE 0.275, HEPG2TOX_R_SQUARED 0.333, PBLUC_HILL_SLOPE 1.7, PBLUC_R_SQUARED 0.794, read-out: LUCIFERASE INFECTION ASSAY - IC50): 0.0199 µM
CC(Nc1ccc2c(c1)CCC2)C(=O)Nc1sccc1C(N)=O (configuration not stated) | 1.74 | IC50 (HEPG2TOX_HILL_SLOPE 0.241, HEPG2TOX_R_SQUARED 0.874, PBLUC_HILL_SLOPE 11.9, PBLUC_R_SQUARED 0.588, read-out: LUCIFERASE INFECTION ASSAY - IC50): 1.45 µM
O=C(Cn1cnc2sccc2c1=O)Nc1nc(-c2ccccn2)cs1 | > 10 | IC50 (HEPG2TOX_HILL_SLOPE 0.285, HEPG2TOX_R_SQUARED 0.277, PBLUC_HILL_SLOPE 15.4, PBLUC_R_SQUARED 0.28, read-out: LUCIFERASE INFECTION ASSAY - IC50): 9.25 µM
NS(=O)(=O)c1ccc(-n2ncc(Nc3ccc(F)cc3)c(Cl)c2=O)cc1 | > 10 | IC50 (HEPG2TOX_HILL_SLOPE 0.263, HEPG2TOX_R_SQUARED 0.596, PBLUC_HILL_SLOPE 7.27, PBLUC_R_SQUARED 0.0377, read-out: LUCIFERASE INFECTION ASSAY - IC50): > 10 µM
COc1ccccc1-n1c(SCCn2c([N+](=O)[O-])cnc2C)nc2sc3c(c2c1=O)CCCC3 | 4.01 | IC50 (HEPG2TOX_HILL_SLOPE 0.275, HEPG2TOX_R_SQUARED 0.775, PBLUC_HILL_SLOPE 12.8, PBLUC_R_SQUARED 0.595, read-out: LUCIFERASE INFECTION ASSAY - IC50): 3.38 µM
Cc1sc2ncnc(SCC(=O)N3N=C4/C(=C/c5ccccc5)CCCC4C3c3ccccc3)c2c1C (configuration not stated) | > 10 | IC50 (HEPG2TOX_HILL_SLOPE 0.257, HEPG2TOX_R_SQUARED 0.0474, read-out: LUCIFERASE INFECTION ASSAY - IC50): > 10 µM
Cc1nnc(NC(=O)c2cn(-c3ccccc3)nc2-c2ccccc2C)o1 | 0.255 | IC50 (HEPG2TOX_HILL_SLOPE 0.258, HEPG2TOX_R_SQUARED 0.871, PBLUC_HILL_SLOPE 2.72, PBLUC_R_SQUARED 0.839, read-out: LUCIFERASE INFECTION ASSAY - IC50): 0.114 µM
